PubChem BioAssay (NCI)
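Five concentrations, 48 hours, 96-well plates. TGI: total growth inhibition.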

Tests used:
Assay in all cases: DTP human tumour cell line panel, 48 h
NCI/ADR-RES ovarian = system: NCI/ADR-RES ovarian
MALME-3M melanoma = system: MALME-3M melanoma
OVCAR-5 ovarian = system: OVCAR-5 ovarian
UO-31 renal = system: UO-31 renal
ACHN renal = system: ACHN renal
LOX IMVI melanoma = system: LOX IMVI melanoma
CAKI-1 renal = system: CAKI-1 renal
MCF7 breast = system: MCF7 breast
786-0 renal = system: 786-0 renal
SN12C renal = system: SN12C renal
OVCAR-4 ovarian = system: OVCAR-4 ovarian
HS 578T breast = system: HS 578T breast
DU-145 prostate = system: DU-145 prostate
SK-MEL-5 melanoma = system: SK-MEL-5 melanoma
BT-549 breast = system: BT-549 breast
RXF 393 renal = system: RXF 393 renal
NCI-H226 lung = system: NCI-H226 lung
SR leukemia = system: SR leukemia
A498 renal = system: A498 renal
U251 CNS = system: U251 CNS
CCRF-CEM leukemia = system: CCRF-CEM leukemia
SK-OV-3 ovarian = system: SK-OV-3 ovarian
MDA-MB-435 = system: MDA-MB-435
MOLT-4 leukemia = system: MOLT-4 leukemia
HOP-92 NSCLC = system: HOP-92 NSCLC
MDA-MB-231 breast = system: MDA-MB-231 breast
RPMI-8226 leukemia = system: RPMI-8226 leukemia
IGROV1 ovarian = system: IGROV1 ovarian
PC-3 prostate = system: PC-3 prostate
EKVX NSCLC = system: EKVX NSCLC
KM12 colon = system: KM12 colon
SNB-75 CNS = system: SNB-75 CNS
TK-10 renal = system: TK-10 renal
HL-60(TB) leukemia = system: HL-60(TB) leukemia
SNB-19 CNS = system: SNB-19 CNS
HCC-2998 colon = system: HCC-2998 colon
A549 NSCLC = system: A549 NSCLC
HCT-15 colon = system: HCT-15 colon
UACC-62 melanoma = system: UACC-62 melanoma
NCI-H23 lung = system: NCI-H23 lung
HOP-62 NSCLC = system: HOP-62 NSCLC
SF-295 CNS = system: SF-295 CNS
SW-620 colon = system: SW-620 colon
OVCAR-8 ovarian = system: OVCAR-8 ovarian
OVCAR-3 ovarian = system: OVCAR-3 ovarian
SK-MEL-28 melanoma = system: SK-MEL-28 melanoma
UACC-257 melanoma = system: UACC-257 melanoma
SK-MEL-2 melanoma = system: SK-MEL-2 melanoma
M14 melanoma = system: M14 melanoma
SF-539 CNS = system: SF-539 CNS
T-47D breast = system: T-47D breast
K-562 leukemia = system: K-562 leukemia
MDA-N = system: MDA-N
NCI-H460 lung = system: NCI-H460 lung
SF-268 CNS = system: SF-268 CNS
COLO 205 colon = system: COLO 205 colon
HT29 colon = system: HT29 colon
HCT-116 colon = system: HCT-116 colon
SNB-78 CNS = system: SNB-78 CNS
M19-MEL melanoma = system: M19-MEL melanoma
DLD-1 colon = system: DLD-1 colon
KM20L2 colon = system: KM20L2 colon
LXFL 529 NSCLC = system: LXFL 529 NSCLC
DMS 114 small cell lung = system: DMS 114 small cell lung

Question: With CC1CCC(=O)C(C(=O)CC2CC(=O)NC(=O)C2)C1 (stereo unspecified) as the compound, how does the TGI (NCI/ADR-RES ovarian) read?
Answer: Its TGI is greater than 100 µM.

Question: What about the TGI (MALME-3M melanoma) of the same compound?
Answer: The TGI was greater than 100 µM.

Question: What about the TGI (OVCAR-5 ovarian) of the same compound?
Answer: Its TGI is greater than 100 µM.

Question: And the TGI (UO-31 renal)?
Answer: Its TGI is greater than 100 µM.

Question: What about the TGI (ACHN renal) of the same compound?
Answer: Its TGI is greater than 100 µM.

Question: And the TGI (LOX IMVI melanoma)?
Answer: Its TGI is greater than 100 µM.

Question: What about the TGI (CAKI-1 renal) of the same compound?
Answer: Its TGI is greater than 100 µM.

Question: What about the TGI (MCF7 breast) of the same compound?
Answer: Its TGI is greater than 100 µM.

Question: And the TGI (786-0 renal)?
Answer: The TGI was greater than 100 µM.

Question: And the TGI (SN12C renal)?
Answer: The TGI was greater than 100 µM.

Question: And the TGI (OVCAR-4 ovarian)?
Answer: Its TGI is greater than 100 µM.

Question: And the TGI (HS 578T breast)?
Answer: The TGI was greater than 100 µM.

Question: What about the TGI (DU-145 prostate) of the same compound?
Answer: The TGI was greater than 100 µM.

Question: What about the TGI (SK-MEL-5 melanoma) of the same compound?
Answer: The TGI was greater than 100 µM.

Question: And the TGI (BT-549 breast)?
Answer: Its TGI is greater than 100 µM.

Question: What about the TGI (RXF 393 renal) of the same compound?
Answer: The TGI was greater than 100 µM.

Question: And the TGI (NCI-H226 lung)?
Answer: The TGI was greater than 100 µM.

Question: And the TGI (SR leukemia)?
Answer: Its TGI is greater than 100 µM.

Question: What about the TGI (A498 renal) of the same compound?
Answer: Its TGI is greater than 100 µM.

Question: What about the TGI (U251 CNS) of the same compound?
Answer: Its TGI is greater than 100 µM.

Question: And the TGI (CCRF-CEM leukemia)?
Answer: Its TGI is greater than 100 µM.

Question: What about the TGI (SK-OV-3 ovarian) of the same compound?
Answer: Its TGI is greater than 100 µM.

Question: And the TGI (MDA-MB-435)?
Answer: The TGI was greater than 100 µM.

Question: And the TGI (MOLT-4 leukemia)?
Answer: Its TGI is greater than 100 µM.

Question: And the TGI (HOP-92 NSCLC)?
Answer: The TGI was greater than 100 µM.

Question: And the TGI (MDA-MB-231 breast)?
Answer: Its TGI is greater than 100 µM.

Question: And the TGI (RPMI-8226 leukemia)?
Answer: Its TGI is greater than 100 µM.

Question: And the TGI (IGROV1 ovarian)?
Answer: The TGI was greater than 100 µM.

Question: What about the TGI (PC-3 prostate) of the same compound?
Answer: The TGI was greater than 100 µM.

Question: And the TGI (EKVX NSCLC)?
Answer: Its TGI is greater than 100 µM.

Question: And the TGI (KM12 colon)?
Answer: The TGI was greater than 100 µM.

Question: And the TGI (SNB-75 CNS)?
Answer: The TGI was greater than 100 µM.

Question: And the TGI (TK-10 renal)?
Answer: The TGI was greater than 100 µM.

Question: And the TGI (HL-60(TB) leukemia)?
Answer: The TGI was greater than 100 µM.

Question: And the TGI (SNB-19 CNS)?
Answer: Its TGI is greater than 100 µM.

Question: And the TGI (HCC-2998 colon)?
Answer: Its TGI is greater than 100 µM.

Question: And the TGI (A549 NSCLC)?
Answer: Its TGI is greater than 100 µM.

Question: And the TGI (HCT-15 colon)?
Answer: The TGI was greater than 100 µM.

Question: What about the TGI (UACC-62 melanoma) of the same compound?
Answer: Its TGI is greater than 100 µM.

Question: What about the TGI (NCI-H23 lung) of the same compound?
Answer: Its TGI is greater than 100 µM.

Question: What about the TGI (HOP-62 NSCLC) of the same compound?
Answer: The TGI was greater than 100 µM.

Question: And the TGI (SF-295 CNS)?
Answer: The TGI was greater than 100 µM.

Question: What about the TGI (SW-620 colon) of the same compound?
Answer: The TGI was greater than 100 µM.

Question: And the TGI (OVCAR-8 ovarian)?
Answer: The TGI was greater than 100 µM.

Question: And the TGI (OVCAR-3 ovarian)?
Answer: The TGI was greater than 100 µM.

Question: And the TGI (SK-MEL-28 melanoma)?
Answer: Its TGI is greater than 100 µM.

Question: And the TGI (UACC-257 melanoma)?
Answer: The TGI was greater than 100 µM.

Question: What about the TGI (SK-MEL-2 melanoma) of the same compound?
Answer: Its TGI is greater than 100 µM.

Question: And the TGI (M14 melanoma)?
Answer: Its TGI is greater than 100 µM.

Question: What about the TGI (SF-539 CNS) of the same compound?
Answer: Its TGI is greater than 100 µM.

Question: What about the TGI (T-47D breast) of the same compound?
Answer: The TGI was greater than 100 µM.

Question: What about the TGI (K-562 leukemia) of the same compound?
Answer: The TGI was greater than 100 µM.

Question: And the TGI (MDA-N)?
Answer: The TGI was greater than 100 µM.

Question: And the TGI (NCI-H460 lung)?
Answer: Its TGI is greater than 100 µM.

Question: And the TGI (SF-268 CNS)?
Answer: The TGI was greater than 100 µM.

Question: What about the TGI (COLO 205 colon) of the same compound?
Answer: Its TGI is greater than 100 µM.

Question: And the TGI (HT29 colon)?
Answer: Its TGI is greater than 100 µM.

Question: What about the TGI (HCT-116 colon) of the same compound?
Answer: Its TGI is greater than 100 µM.

Question: COc1cccc(C2CC(C)=Nc3c(ccc4c3C(=O)c3ccccc3C4=O)N2)c1O (stereo unspecified) was tested. Which TGI (MALME-3M melanoma) did it give?
Answer: Its TGI is greater than 100 µM.

Question: And the TGI (OVCAR-5 ovarian)?
Answer: The TGI was greater than 100 µM.

Question: What about the TGI (UO-31 renal) of the same compound?
Answer: The TGI was greater than 100 µM.

Question: And the TGI (ACHN renal)?
Answer: The TGI was greater than 100 µM.

Question: And the TGI (786-0 renal)?
Answer: The TGI was greater than 100 µM.

Question: What about the TGI (SN12C renal) of the same compound?
Answer: The TGI was greater than 100 µM.

Question: And the TGI (SNB-78 CNS)?
Answer: Its TGI is greater than 100 µM.

Question: And the TGI (M19-MEL melanoma)?
Answer: The TGI was greater than 100 µM.

Question: And the TGI (DLD-1 colon)?
Answer: Its TGI is greater than 100 µM.

Question: What about the TGI (KM20L2 colon) of the same compound?
Answer: The TGI was greater than 100 µM.

Question: What about the TGI (NCI-H226 lung) of the same compound?
Answer: The TGI was greater than 100 µM.

Question: What about the TGI (A498 renal) of the same compound?
Answer: Its TGI is greater than 100 µM.

Question: What about the TGI (U251 CNS) of the same compound?
Answer: The TGI was greater than 100 µM.

Question: What about the TGI (HOP-92 NSCLC) of the same compound?
Answer: Its TGI is greater than 100 µM.

Question: What about the TGI (RPMI-8226 leukemia) of the same compound?
Answer: The TGI was greater than 100 µM.

Question: And the TGI (IGROV1 ovarian)?
Answer: Its TGI is greater than 100 µM.

Question: And the TGI (EKVX NSCLC)?
Answer: Its TGI is greater than 100 µM.

Question: And the TGI (KM12 colon)?
Answer: Its TGI is greater than 100 µM.

Question: And the TGI (SNB-75 CNS)?
Answer: The TGI was greater than 100 µM.

Question: What about the TGI (LXFL 529 NSCLC) of the same compound?
Answer: Its TGI is greater than 100 µM.

Question: What about the TGI (HL-60(TB) leukemia) of the same compound?
Answer: Its TGI is greater than 100 µM.

Question: What about the TGI (SNB-19 CNS) of the same compound?
Answer: The TGI was greater than 100 µM.

Question: And the TGI (HCC-2998 colon)?
Answer: The TGI was greater than 100 µM.

Question: What about the TGI (A549 NSCLC) of the same compound?
Answer: The TGI was greater than 100 µM.

Question: What about the TGI (HCT-15 colon) of the same compound?
Answer: The TGI was greater than 100 µM.

Question: And the TGI (UACC-62 melanoma)?
Answer: The TGI was greater than 100 µM.

Question: And the TGI (NCI-H23 lung)?
Answer: The TGI was greater than 100 µM.

Question: And the TGI (HOP-62 NSCLC)?
Answer: Its TGI is greater than 100 µM.

Question: And the TGI (SW-620 colon)?
Answer: The TGI was greater than 100 µM.

Question: What about the TGI (OVCAR-8 ovarian) of the same compound?
Answer: The TGI was greater than 100 µM.

Question: And the TGI (OVCAR-3 ovarian)?
Answer: The TGI was 95.1 µM.

Question: And the TGI (DMS 114 small cell lung)?
Answer: The TGI was greater than 100 µM.

Question: What about the TGI (M14 melanoma) of the same compound?
Answer: The TGI was greater than 100 µM.

Question: What about the TGI (K-562 leukemia) of the same compound?
Answer: Its TGI is greater than 100 µM.

Question: What about the TGI (NCI-H460 lung) of the same compound?
Answer: Its TGI is greater than 100 µM.

Question: And the TGI (COLO 205 colon)?
Answer: Its TGI is greater than 100 µM.

Question: And the TGI (HT29 colon)?
Answer: Its TGI is greater than 100 µM.

Question: And the TGI (HCT-116 colon)?
Answer: Its TGI is greater than 100 µM.
